Experiments:
[1] = target: T1, metabotropic glutamate receptor (mGluR5) (Homo sapiens, UniProt P41594); assay: Cytosolic calcium studies with stably transfected cells (FLIPR, CHO-K1); assay type: cell-based; design: expressed in transfected cells; host or cells: CHO-K1 cells (IPTG-inducible expression); conditions: CHO-K1 cells expressing human mGluR5; agonist L-quisqualic acid at 80% of maximal signal; negative modulation; read-out: mGluR5_FLIPR_h_CHO_NAM— IC50
Experimental: Cytosolic Calcium Studies with Stably Transfected Cells:
Chinese hamster ovary cells (CHO-K1 cells), stably transfected for inducible expression of a human metabotropic glutamate receptor mGluR5, are seeded into black clear bottom 96 well plates at a density of 35.000 cells per well. The standard growth medium used (Dulbecco's modified Eagle Medium, DMEM plus L-proline) contains the appropriate inducer isopropyl-β-D-thiogalactopyranosid (IPTG) to achieve optimal receptor expression. One day after seeding the growth medium is exchanged for reconstituted Ca-Kit (Molecular Devices, USA) and incubated for one hour. Ca-Kit is reconstituted in an assay buffer containing 20 mM HEPES pH 7.4, glutamic-pyruvate transaminase, pyridoxal phosphate and sodium pyruvate in Hank's balanced salt solution (HBBS). Agonistic compounds to the receptor elicit increases in cytosolic calcium which can be measured as increases in fluorescence signals by use of a fluorescence imaging plate reader (Molecular Devices).
(§1) The fluorescence signal increase after addition of agonist reflects the increase of cytosolic calcium. Inconsistencies in the amount of cells per well are normalised by using the spatial uniformity correction of the FLIPR software. The mean of replicated temporal data (n=3-5) is calculated and used for graphical representation. For the evaluation of the pharmacology, the calcium changes in response to different concentrations of agonist or antagonist are determined using a maximum minus minimum (MaxMin) calculation.
(§2) All responses (RFU-values) are determined as percentage of control (=maximum response). EC50 and IC50 are calculated according the logistic equation using GraFit 5.0 (Erithacus Software, GB) or Prism 4.0 (GraphPad Software, USA).

[2] = target: T2, transmembrane allosteric modulatory sites of mGluR5 receptors (Rattus norvegicus, UniProt P31424); assay: [3H]-MPEP binding assay in rat cortical membranes; conditions: displacement of radioligand, read-out: mGluR5_M_MPEP_r_CTX IC50
T2 construct: from tissue; host or cells: cortex of male Sprague-Dawley rats, membrane preparation
T2 sequence (P31424 21-1203): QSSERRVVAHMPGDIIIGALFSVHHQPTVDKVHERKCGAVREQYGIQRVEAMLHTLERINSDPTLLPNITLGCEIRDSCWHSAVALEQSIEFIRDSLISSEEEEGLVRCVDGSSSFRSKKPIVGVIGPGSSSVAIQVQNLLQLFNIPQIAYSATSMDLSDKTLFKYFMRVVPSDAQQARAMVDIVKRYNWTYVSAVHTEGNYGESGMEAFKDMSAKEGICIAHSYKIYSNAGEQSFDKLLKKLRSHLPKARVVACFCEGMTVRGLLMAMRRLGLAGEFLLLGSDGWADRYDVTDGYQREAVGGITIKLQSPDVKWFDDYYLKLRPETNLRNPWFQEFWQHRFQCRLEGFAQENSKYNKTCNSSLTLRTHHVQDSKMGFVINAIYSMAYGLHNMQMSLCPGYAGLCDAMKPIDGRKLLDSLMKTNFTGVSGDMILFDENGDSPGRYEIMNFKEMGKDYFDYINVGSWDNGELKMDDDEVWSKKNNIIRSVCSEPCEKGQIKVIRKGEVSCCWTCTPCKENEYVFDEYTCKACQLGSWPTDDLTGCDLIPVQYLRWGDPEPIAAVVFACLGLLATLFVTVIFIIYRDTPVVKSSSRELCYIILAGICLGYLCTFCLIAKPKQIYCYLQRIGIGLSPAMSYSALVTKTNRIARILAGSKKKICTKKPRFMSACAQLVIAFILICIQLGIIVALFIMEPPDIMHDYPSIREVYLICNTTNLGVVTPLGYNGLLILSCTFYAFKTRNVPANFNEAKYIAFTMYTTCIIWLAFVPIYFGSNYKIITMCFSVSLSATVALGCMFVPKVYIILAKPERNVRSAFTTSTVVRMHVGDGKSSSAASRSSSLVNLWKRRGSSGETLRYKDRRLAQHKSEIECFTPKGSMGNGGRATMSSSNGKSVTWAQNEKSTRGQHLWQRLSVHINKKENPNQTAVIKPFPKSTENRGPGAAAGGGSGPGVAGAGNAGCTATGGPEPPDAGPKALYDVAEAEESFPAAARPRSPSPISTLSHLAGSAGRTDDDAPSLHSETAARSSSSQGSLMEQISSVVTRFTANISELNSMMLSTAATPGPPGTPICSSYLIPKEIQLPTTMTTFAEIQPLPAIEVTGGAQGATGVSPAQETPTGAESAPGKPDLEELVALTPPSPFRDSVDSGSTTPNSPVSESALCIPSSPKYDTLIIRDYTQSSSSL
Experimental: Binding Assays for the Characterization of mGluR5 Antagonists
Preparation of Rat Cortical Membranes:
Male Sprague-Dawley rats (200-250 g) are decapitated and their brains are removed rapidly. The cortex is dissected and homogenized in 20 volumes of ice-cold 0.32 M sucrose using a glass-Teflon homogenizer. The homogenate is centrifuged at 1000×g for 10 minutes. The pellet is discarded and the supernatant centrifuged at 20,000×g for 20 minutes. The resulting pellet is re-suspended in 20 volumes of distilled water and centrifuged for 20 minutes at 8000×g. Then the supernatant and the buffy coat are centrifuged at 48,000×g for 20 minutes in the presence of 50 mM Tris-HCl, pH 8.0. The pellet is then re-suspended and centrifuged two to three more times at 48,000×g for 20 minutes in the presence of 50 mM Tris-HCl, pH 8.0. All centrifugation steps are carried out at 4° C. After resuspension in 5 volumes of 50 mM Tris-HCl, pH 8.0 the membrane suspension is frozen rapidly at −80° C.
On the day of assay the membranes are thawed and washed four times by resuspension in 50 mM Tris-HCl, pH 8.0 and centrifugation at 48,000×g for 20 minutes and finally re-suspended in 50 mM Tris-HCl, pH 7.4. The amount of protein in the final membrane preparation (500-700 μg/ml) is determined according to the method of Lowry (Lowry O. H. et al. 1951. J. Biol. Chem. 193, 256-275).
The incubations are continued at room temperature for 60 minutes (equilibrium is achieved under the conditions used). […] Incubations are terminated using a Millipore filter system. The samples are rinsed twice with 4 ml of ice-cold assay buffer over glass fibre filters (Schleicher & Schuell, Germany) under a constant vacuum. Following separation and rinse, the filters are placed into scintillation liquid (5 ml Ultima Gold, Perkin Elmer, Germany) and radioactivity retained on the filters is determined with a conventional liquid scintillation counter (Can berra Packard, Germany).

[3] = target: T3, mGluR5 receptors (Rattus norvegicus, UniProt P31424); assay: Cytosolic calcium studies with astrocytes (astrocyte culture test, FLIPR); assay type: cell-based; conditions: rat primary astrocytes; L-quisqualate 100 nM; read-out: mGluR5_FLIPR_r_rpA— IC50
T3 construct: endogenous in cells; host or cells: primary astrocytes from neocortex of Sprague-Dawley rat pups (2-4 d old)
T3 sequence (P31424 21-1203): as above
Experimental: Primary astrocyte cultures are prepared from cortices of newborn rats as described by Booher and Sensenbrenner (1972, Neurobiology 2(3):97-105). Briefly, Sprague-Dawley rat pups (2-4 d old) are decapitated and neocortices are dissected, disintegrated with a nylon filter (pore size 80 μm) and carefully triturated. The cell suspension is plated on poly-D-lysine pre-coated flasks (Costar, Netherlands) and cultivated in Dulbecco's Modified Eagle's Medium (DMEM, Invitrogen, Germany) supplemented with 10% foetal calf serum (FCS, Sigma, Germany), 4 mM glutamine and 50 μg/ml gentamycin (both Biochrom, Germany) at 37° C. in a humidified atmosphere of 5% CO2/95% air for 7 d with exchanging the medium at day 2 and 6.
After 7 days in vitro (DIV), cells are shaken overnight at 250 rpm to remove oligodendrocytes and microglia. The next day, astrocytes are rinsed twice with CMF-PBS (calcium- and magnesium-free phosphate buffered saline, Biochrom, Germany), trypsinized and subplated on poly-D-lysine pre-coated 96-well plates (Greiner, Germany) at a density of 40,000 cells/well. 24 h after establishing the secondary culture the astrocytes are rinsed with PBS^++ (phosphate buffered saline, Biochrom, Germany) and fed with astrocyte-defined medium (ADM) consisting of DMEM containing 1×G5-supplement (Invitrogen, Germany), 0.5 μg/ml heparan sulfate, and 1.5 μg/ml fibronectin (both Sigma, Germany) (Miller et al., (1993) Brain Res. 618(1):175-8). 3 d later the medium is exchanged and the cells incubated for another 2-3 d, so that at the time of experiments astrocytes are 14-15 DIV.
Cytosolic Calcium Studies with Astrocytes:
The increase of cytosolic calcium after stimulation with the mGluR5 agonist L-quisqualate is measured using a fluorometric imaging plate reader (FLIPR) and the Ca-Kit (both Molecular Devices). Prior to addition of agonist or antagonist the medium is aspirated and cells are loaded for 2 h at RT with 150 μl of loading buffer consisting of Ca-sensitive dye reconstituted in sodium chloride (123 mM), potassium chloride (5.4 mM), magnesium chloride (0.8 mM), calcium chloride (1.8 mM), D-glucose (15 mM), and HEPES (20 mM), pH 7.3. Subsequently, plates are transferred to FLIPR to detect calcium increase with the addition of L-quisqualate (100 nM) measured as relative fluorescence units (RFU). If antagonists are tested, these compounds are pre-incubated for 10 minutes at RT before addition of the respective agonist.
as §1, §2

[4] = target: T1, metabotropic glutamate receptor (mGluR5); assay: Activity as mGluR5 modulator (test not specified); conditions: for activity as metabotropic glutamate receptor (mGluR5) modulator: prior-art compounds

T1 sequence (P41594 21-1212): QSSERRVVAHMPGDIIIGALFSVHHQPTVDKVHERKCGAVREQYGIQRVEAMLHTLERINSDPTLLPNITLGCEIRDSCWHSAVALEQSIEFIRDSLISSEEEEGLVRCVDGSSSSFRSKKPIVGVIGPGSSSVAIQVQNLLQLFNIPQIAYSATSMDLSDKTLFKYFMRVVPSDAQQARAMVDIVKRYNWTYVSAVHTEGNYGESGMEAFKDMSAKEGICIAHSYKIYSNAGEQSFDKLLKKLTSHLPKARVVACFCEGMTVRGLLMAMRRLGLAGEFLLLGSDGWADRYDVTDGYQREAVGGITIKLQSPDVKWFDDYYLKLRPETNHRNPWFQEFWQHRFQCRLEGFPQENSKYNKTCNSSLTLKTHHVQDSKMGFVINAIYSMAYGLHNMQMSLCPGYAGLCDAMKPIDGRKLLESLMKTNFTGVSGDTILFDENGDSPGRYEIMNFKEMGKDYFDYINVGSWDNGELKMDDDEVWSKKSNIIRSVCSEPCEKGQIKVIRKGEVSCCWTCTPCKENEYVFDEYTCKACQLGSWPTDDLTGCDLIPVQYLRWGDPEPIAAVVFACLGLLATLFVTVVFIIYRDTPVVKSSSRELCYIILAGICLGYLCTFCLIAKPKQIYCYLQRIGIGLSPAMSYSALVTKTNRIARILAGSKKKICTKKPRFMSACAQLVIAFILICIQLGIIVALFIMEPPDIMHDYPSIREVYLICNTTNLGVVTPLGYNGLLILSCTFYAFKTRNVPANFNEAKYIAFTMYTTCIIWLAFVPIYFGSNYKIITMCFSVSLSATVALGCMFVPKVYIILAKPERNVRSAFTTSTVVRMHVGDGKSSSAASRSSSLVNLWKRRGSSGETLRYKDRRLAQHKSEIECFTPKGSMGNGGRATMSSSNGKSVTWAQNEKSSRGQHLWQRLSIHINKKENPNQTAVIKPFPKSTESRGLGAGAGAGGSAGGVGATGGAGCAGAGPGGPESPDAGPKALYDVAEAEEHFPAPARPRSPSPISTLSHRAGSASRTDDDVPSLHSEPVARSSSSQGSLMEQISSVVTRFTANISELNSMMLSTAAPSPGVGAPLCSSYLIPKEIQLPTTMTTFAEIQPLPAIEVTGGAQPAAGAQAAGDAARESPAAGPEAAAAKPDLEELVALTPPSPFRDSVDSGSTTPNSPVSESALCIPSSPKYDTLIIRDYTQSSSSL

Structure (SMILES)	melting point	IC50 [1]	IC50 [2]	IC50 [3]	activity as metabotropic glutamate receptor (mGluR5) modulator [4]	selectivity ([4]; prior-art compound)
C[C@H]1c2ccsc2CCN1C(=O)c1cc2ncc(Br)cn2n1 [Example 41, (6-Bromo-pyrazolo[1,5-a]pyrimidin-2-yl)-(4-methyl-6,7-dihydro-4H-thieno[3,2-c]pyridin-5-yl)-methanone]	136 to 137 °C	4420 nM	–	–	–	–
CC1c2ccoc2CCN1C(=O)c1cc2ncc(Br)cn2n1 (stereo not shown) [Example 28, 6-Bromo-2-[(4-methyl-6,7-dihydrofuro[3,2-c]pyridin-5(4H)-yl)carbonyl]pyrazolo[1,5-a]pyrimidine]	–	107 nM	214 nM	80.5 nM	–	–
Cc1cc2c(o1)CCN(C(=O)c1cc3ncc(Br)cn3n1)C2C (stereo not shown) [Example 44, (6-Bromo-pyrazolo[1,5-a]pyrimidin-2-yl)-(2,4-dimethyl-6,7-dihydro-4H-furo[3,2-c]pyridin-5-yl)-methanone]	–	147 nM	17 nM	36 nM	–	–
Cc1cc2c(s1)CCN(C(=O)c1cc3ncc(Br)cn3n1)C2C (stereo not shown) [Example 15, (6-Bromo-pyrazolo[1,5-a]pyrimidin-2-yl)-(2,4-dimethyl-6,7-dihydro-4H-thieno[3,2-c]pyridin-5-yl)-methanone]	–	104 nM	12 nM	22.8 nM	–	–
CCC1c2ccsc2CCN1C(=O)c1cc2ncc(Cl)cn2n1 (stereo not shown) [Example 10, (6-Chloro-pyrazolo[1,5-a]pyrimidin-2-yl)-(4-ethyl-6,7-dihydro-4H-thieno[3,2-c]pyridin-5-yl)-methanone]	–	82 nM	150 nM	21 nM	–	–
O=C(c1cc2ncc(Br)cn2n1)N1CCc2ccccc2C1 [M, (6-Bromo-pyrazolo[1,5-a]pyrimidin-2-yl)-(1,2,3,4-tetrahydro-isoquinolin-2-yl)-methanon]	–	–	–	–	only a limited activity	not selective
CCC1c2ccsc2CCN1C(=O)c1cc2ncc(Br)cn2n1 (stereo not shown) [Example 9, (6-Bromo-pyrazolo[1,5-a]pyrimidin-2-yl)-(4-ethyl-6,7-dihydro-4H-thieno[3,2-c]pyridin-5-yl)-methanone]	–	63.6 nM	117 nM	21 nM	–	–
CC1c2ccsc2CCN1C(=O)c1cc2ncc(Br)cn2n1 (stereo not shown) [Example 1, 6-Bromo-2-[(4-methyl-6,7-dihydrothieno[3,2-c]pyridin-5(4H)-yl)carbonyl]pyrazolo[1,5-a]pyrimidine]	–	80.7 nM	80 nM	23 nM	–	–
C[C@@H]1c2ccsc2CCN1C(=O)c1cc2ncc(Br)cn2n1 [Example 42, (6-Bromo-pyrazolo[1,5-a]pyrimidin-2-yl)-(4-methyl-6,7-dihydro-4H-thieno[3,2-c]pyridin-5-yl)-methanone]	142 to 144 °C	23.4 nM	10 nM	20 nM	–	–

Results, then the compound that gave them:

melting point	IC50 [1]	IC50 [2]	IC50 [3]	activity as metabotropic glutamate receptor (mGluR5) modulator [4]	selectivity ([4]; prior-art compound)	Structure (SMILES)
–	92.9 nM	20 nM	21 nM	–	–	Cc1cc2c(s1)CCN(C(=O)c1cc3ncc(Cl)cn3n1)C2C (stereo not shown) [Example 16, (6-Chloro-pyrazolo[1,5-a]pyrimidin-2-yl)-(2,4-dimethyl-6,7-dihydro-4H-thieno[3,2-c]pyridin-5-yl)-methanone]
–	–	–	–	no particular activity	–	O=C(c1cc2ncc(Br)cn2n1)N1CCCCC1 [Example B308, (6-Bromopyrazolo[1,5-a]pyrimidin-2-yl)-piperidin-1-yl-methanone]
–	–	–	–	no particular activity	–	O=C(c1cc2ncc(Br)cn2n1)N1CCOCC1 [Example B310, (6-Bromopyrazolo[1,5-a]pyrimidin-2-yl)-morpholin-4-yl-methanone]
–	206 nM	110 nM	64 nM	–	–	CC1c2ccoc2CCN1C(=O)c1cc2ncc(Cl)cn2n1 (stereo not shown) [Example 29, 6-Chloro-2-[(4-methyl-6,7-dihydrofuro[3,2-c]pyridin-5(4H)-yl)carbonyl]pyrazolo[1,5-a]pyrimidine]
–	44 nM	55 nM	24 nM	–	–	CC1c2ccsc2CCN1C(=O)c1cc2ncc(Cl)cn2n1 (stereo not shown) [Example 2, (6-Chloro-pyrazolo[1,5-a]pyrimidin-2-yl)-(4-methyl-6,7-dihydro-4H-thieno[3,2-c]pyridin-5-yl)-methanone]

Reference: US7947689B2, “Substituted pyrazolo[1,5-a]pyrimidines as metabotropic glutamate receptor modulators” (Merz Pharma GmbH & Co. KGaA, priority 2006, dated 2011)
